Publication PMC5510889 (Metallomics : integrated biometal science, 2017)

How the values were obtained:
[1] = target: T1, IsdG (Staphylococcus aureus, UniProt Q7A649); details: cited from earlier work
[2] = target: myoglobin; details: cited from earlier work
[3] = target: T1, IsdG; test: Fluorescence-detected heme titration; assay type: binding
[4] = target: T1, IsdG; details: UV/Vis titration fitted to Michaelis-Menten model; cited from earlier work
[5] = target: T2, IsdI (Staphylococcus aureus, UniProt Q7A827); test: Fluorescence-detected heme titration; assay type: binding
[6] = target: T1, IsdG; test: Apomyoglobin competition assay; assay type: binding; details: ratio of koff values, IsdG–heme vs IsdI–heme
[7] = target: T2, IsdI; test: UV/Vis absorption-detected heme titration; assay type: binding
[8] = target: T1, IsdG; test: UV/Vis absorption-detected heme titration; assay type: binding
[9] = target: T2, IsdI; details: UV/Vis titration fitted to Michaelis-Menten model; cited from earlier work

T2 sequence (Q7A827 whole entry): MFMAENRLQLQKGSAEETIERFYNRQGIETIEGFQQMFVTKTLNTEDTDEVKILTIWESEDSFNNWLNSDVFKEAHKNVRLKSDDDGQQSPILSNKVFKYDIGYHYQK
T1 sequence (Q7A649 whole entry): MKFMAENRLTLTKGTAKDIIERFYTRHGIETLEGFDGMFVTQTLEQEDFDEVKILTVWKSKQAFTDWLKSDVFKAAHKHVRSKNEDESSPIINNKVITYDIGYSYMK

SMILES | mode of inhibition of IsdG [1] | Kd for heme dissociation from myoglobin [2] | Kd [3] [nM] | heme binding to IsdG tighter than heme binding to IsdI ([3]; ratio of fluorescence Kd values, IsdG vs IsdI) | Kd for heme, IsdG, as reported in the literature [4] | Kd [5] [nM] | rate of heme dissociation from IsdG–heme slower than from IsdI–heme [6] | Kd [7] [nM] | Kd [8] [nM] | Kd for heme, IsdI, as reported in the literature [9]
[N-]=[N+]=[N-] [azide] | uncompetitive inhibitors |  |  |  |  |  |  |  |  | 
C=CC1=C(C)c2cc3[n-]c(cc4nc(cc5[n-]c(cc1n2)c(C)c5CCC(=O)O)C(CCC(=O)O)=C4C)c(C)c3C=C.[Fe+3] [heme] |  | femtomolar | 1.4 ± 0.6 | nine-fold | micromolar | 12.9 ± 1.3 | four-fold | 15 ± 10 | 34 ± 20 | micromolar
